# System: MV-4-11 cells
# Experiment: Gene expression microarray analysis (Affymetrix PrimeView) and GSEA
# Assay type: cell-based, human
# Conditions: MV-4-11, 48 hours, 1 μM each
smiles,measurement,value
Nc1ncn([C@@H]2O[C@H](CO)[C@@H](O)[C@H]2O)c(=O)n1 [azacitidine],genes up-regulated greater than 2-fold relative to vehicle control,62 genes
